Results as given in patent US4175081A, “5-Substituted thiadiazole ureas” (priority 1977, dated 1979).

What was measured:
[1] = test system: Bean (BN); assay: Post-emergence herbicide test; format: in vivo, Phaseolus vulgaris var. Black Valentine; settings: Phaseolus vulgaris, post-emergence, 336 h; 8 lb/acre; two weeks after treatment
Summary of the method: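 Snapbean (Phaseolus vulgaris var. Black Valentine) was tested post-emergence. Four seeds were sown in 3' plastic pots of potting soil at a depth equal to the seed diameter, then sub-irrigated in greenhouse trays. Planting dates were staggered so plants were sprayed once primary leaves had expanded, with the growing point at the primary leaf nodes.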

[2] = test system: Johnson grass (JG); assay: Post-emergence herbicide test; format: in vivo, Sorgum helepense; settings: Sorghum halepense, 336 h, 8 lb/acre, two weeks after treatment
Summary of the method: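 Greenhouse pot-grown seedlings sprayed post-emergence at 8 lbs compound per acre (some at 4 lbs/acre) in 38 gallons per acre spray volume. Sub-irrigated thereafter. Injury/control rated visually two weeks after treatment.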

[3] = test system: Barnyard grass (BG); assay: Post-emergence herbicide test; format: in vivo; settings: Echinochloa crus-galli, 336 h, 8 lb/acre, two weeks after treatment
Summary of the method: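 Greenhouse pot-grown barnyard grass seedlings sprayed post-emergence at 8 lbs active compound per acre (some at 4 lbs/acre) in 38 gallons per acre, then sub-irrigated. Injury or control rated visually two weeks after treatment.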

[4] = test system: Turnip (TP); assay: Post-emergence herbicide test; format: in vivo, Brassica sp.; settings: Brassica rapa, post-emergence, 336 h; 8 lb/acre; two weeks after treatment
Summary of the method: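 A greenhouse post-emergence herbicide test on turnip. Seeds were sown on the surface of potting soil in 3' plastic pots, lightly covered with screened soil and watered from below. Planting was timed so seedlings had 1 or 2 true leaves above the cotyledons at spraying, done in a hood with a fixed nozzle. Control or injury was scored by eye after two weeks.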

[5] = test system: Cotton (CT); assay: Post-emergence herbicide test; format: in vivo, Gossypium hirsutum var. DPL smooth leaf; settings: Gossypium hirsutum, post-emergence, 336 h; 8 lb/acre; two weeks after treatment
Summary of the method: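 Cotton (Gossypium hirsutum var. DPL smooth leaf) was grown in 3' plastic pots of potting soil, four seeds per pot, planted at a depth equal to the seed diameter and watered by sub-irrigation. At the stage of expanded cotyledons with the first true leaf 1' long, plants were sprayed post-emergence in a hood with a fixed nozzle over a moving belt. Percent control was rated visually two weeks later.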

[6] = test system: Yellow foxtail grass (YF); assay: Post-emergence herbicide test; format: in vivo, Setaria glauca; settings: Setaria, 336 h, 8 lb/acre, two weeks after treatment
Summary of the method: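 Potted seedlings grown in greenhouse, planting staggered to reach the target stage together, then sprayed post-emergence at 8 lbs actual compound/acre in 38 gallons/acre (4 lbs/acre formulations also prepared). Sub-irrigated afterwards. Injury or control rated visually two weeks after treatment.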

[7] = test system: Cotton (CT); assay: Pre-emergence herbicide test; format: in vivo, Gossypium hirsutum var. DPL smooth leaf; settings: Gossypium hirsutum, 336 h, 8 lb/acre, two weeks after treatment
Summary of the method: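 Crop and weed species seeded one day before treatment, then sprayed pre-emergence at 8 lbs actual compound per acre (also 4 lbs/acre formulations) in 38 gallons per acre. Pots kept in greenhouse with sub-irrigation only; injury or control visually rated two weeks after treatment.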

[8] = test system: Barnyard grass (BG); assay: Pre-emergence herbicide test; format: in vivo; settings: Echinochloa crus-galli, 336 h, 8 lb/acre, two weeks after treatment
Summary of the method: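 Barnyard grass surface-seeded in potting soil and sprayed pre-emergence one day after seeding, at 8 or 4 lb compound/acre in 38 gal/acre spray volume. Pots kept in greenhouse with sub-irrigation only; injury or control rated visually two weeks after treatment.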

[9] = test system: Yellow foxtail grass (YF); assay: Pre-emergence herbicide test; format: in vivo, Setaria glauca; settings: Setaria, 336 h, 8 lb/acre, two weeks after treatment
Summary of the method: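 Seeds surface-sown in potting soil one day before spraying; compounds applied pre-emergence at 8 or 4 lbs/acre in 38 gallons/acre spray. Pots held in greenhouse with sub-irrigation only. Injury or control rated visually two weeks after treatment.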

[10] = test system: Bean (BN); assay: Pre-emergence herbicide test; format: in vivo, Phaseolus vulgaris var. Black Valentine; settings: Phaseolus vulgaris, 336 h, 8 lb/acre, two weeks after treatment
Summary of the method: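 Black Valentine bean was seeded in potting soil one day before spraying. Compound was applied pre-emergence at 8 lbs/acre (also 4 lbs/acre) in 38 gallons per acre. Plants were sub-irrigated and injury or control was rated visually after two weeks.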

[11] = test system: Crabgrass (CG); assay: Pre-emergence herbicide test; format: in vivo, Digitaria sanquinalis; settings: Digitaria sanguinalis, pre-emergence, 336 h; 8 lb/acre; two weeks after treatment
Summary of the method: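 Crabgrass (Digitaria sanquinalis) was surface seeded in 3' plastic pots of potting soil, covered with screened soil, and watered by sub-irrigation in greenhouse trays. Pots were seeded one day before spraying in a hood with a moving belt and fixed nozzle. Plants stayed in the greenhouse on sub-irrigation, and pre-emergence control was rated visually two weeks after treatment.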

[12] = test system: Johnson grass (JG); assay: Pre-emergence herbicide test; format: in vivo, Sorgum helepense; settings: Sorghum halepense, 336 h, 8 lb/acre, two weeks after treatment
Summary of the method: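 Pots seeded one day before spraying; compound applied pre-emergence at 8 lbs/acre (or 4 lbs/acre) in 38 gallons/acre spray volume. Sub-irrigated in greenhouse; injury/control rated visually two weeks after treatment.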

[13] = test system: Amaranth pigweed (PW); assay: Post-emergence herbicide test; format: in vivo, Amaranthus retroflexus; settings: 336 h, 8 lb/acre, two weeks after treatment
Summary of the method: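 Pot-grown pigweed was sprayed post-emergence at the 1–2 true-leaf stage with compound at rates equivalent to 8 lbs per acre (formulations also prepared for 4 lbs/acre) in 38 gallons per acre, using a hood with fixed nozzle. Plants were sub-irrigated in the greenhouse, and injury or control was rated visually two weeks after treatment.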

[14] = test system: Corn (CN); assay: Pre-emergence herbicide test; format: in vivo; settings: Zea mays, 336 h, 8 lb/acre, two weeks after treatment
Summary of the method: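 Four corn seeds per pot, sown at seed-diameter depth one day before spraying, got soil surface treatment at 8 lbs/acre (4 lbs/acre formulations also prepared) in 38 gallons/acre. Pots were greenhouse-held with sub-irrigation only. Injury or control was scored visually two weeks after treatment.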

[15] = test system: Amaranth pigweed (PW); assay: Pre-emergence herbicide test; format: in vivo, Amaranthus retroflexus; settings: 336 h, 8 lb/acre, two weeks after treatment
Summary of the method: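 Pigweed was surface-seeded in potted soil one day before spraying at 8 lbs compound per acre, or 4 lbs/acre, in 38 gallons per acre. Pots were kept in the greenhouse with sub-irrigation only; injury or control was rated visually two weeks after treatment.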

[16] = test system: Corn (CN); assay: Post-emergence herbicide test; format: in vivo; settings: Zea mays, 336 h, 8 lb/acre, two weeks after treatment
Summary of the method: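 Greenhouse seedlings grown in potting soil and sprayed post-emergence at 8 lbs compound/acre (formulations also made for 4 lbs/acre) in 38 gallons/acre spray volume. Watering by sub-irrigation only. Injury or control rated visually two weeks after treatment.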

[17] = test system: Turnip (TP); assay: Pre-emergence herbicide test; format: in vivo, Brassica sp.; settings: Brassica rapa, pre-emergence, 336 h; 8 lb/acre; two weeks after treatment
Summary of the method: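 Turnip (Brassica sp.) seeds were surface sown in 3' plastic pots of potting soil, covered with a thin layer of screened soil, and sub-irrigated in greenhouse trays. Pots were seeded one day ahead of treatment, sprayed pre-emergence under a hood with a fixed nozzle and moving belt, then kept in the greenhouse.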

[18] = test system: Crabgrass (CG); assay: Post-emergence herbicide test; format: in vivo, Digitaria sanquinalis; settings: Digitaria sanguinalis, post-emergence, 336 h; 8 lb/acre; two weeks after treatment
Summary of the method: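 Crabgrass (Digitaria sanquinalis) was surface seeded individually in 3' plastic pots of potting soil, covered with screened soil, and watered by sub-irrigation in greenhouse trays. Planting was staggered so seedlings reached the target stage together. Post-emergence sprays were applied in a hood with a removable belt and fixed nozzle, and control was visually rated two weeks after treatment.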

Q: Which results are given for `CNC(=O)N(C)c1nnc(SC)s1` [Example 38]?
A: pest or weed control at 8966.8 g/ha [1]: 100%; pest or weed control at 8966.8 g/ha [2]: 80%; pest or weed control at 8966.8 g/ha [3]: 90%; pest or weed control at 8966.8 g/ha [4]: 100%; pest or weed control at 8966.8 g/ha [5]: 100%; pest or weed control at 8966.8 g/ha [6]: 100%; pest or weed control at 8966.8 g/ha [7]: 90%; pest or weed control at 8966.8 g/ha [8]: 100%; pest or weed control at 8966.8 g/ha [9]: 100%; pest or weed control at 8966.8 g/ha [10]: 100%; pest or weed control at 8966.8 g/ha [11]: 100%; pest or weed control at 8966.8 g/ha [12]: 80%; pest or weed control at 8966.8 g/ha [13]: 100%; pest or weed control at 8966.8 g/ha [14]: 80%; pest or weed control at 8966.8 g/ha [15]: 90%; pest or weed control at 8966.8 g/ha [16]: 100%; pest or weed control at 8966.8 g/ha [17]: 100%; pest or weed control at 8966.8 g/ha [18]: 80%
